Counter-ions that a name gives are not always drawn.
Each compound was assayed against T1, human mGluR5 (Homo sapiens, UniProt P41594) (assay: Experiment for receptor function of mGluR5 (Ca2+-dependent fluorescence, FLIPR, CHO-K1 cells stably expressing human mGluR5)). Conditions: L-glutamic acid 10 μM, Fluo-4 fluorescence.
T1 construct: expressed in transfected cells
Assay type: cell-based
Experimental: Stable expression cells in which the human mGluR5 gene had been introduced into a Chinese hamster ovary cell (CHO-K1) were used for evaluation. The cells were suspended in a growth medium (MEM-α (D8042, available from Sigma) containing 10% inactivated FBS (Cat. No. 171012, available from CCB) and 2 mM glutamax (Cat. No. 35050, available from GIBCO)) and seeded on a black clear-bottom 96-well plate at 100,000 cells per well. One day after seeding, the medium was replaced by a medium (Hanks' balanced salt solution (HBSS buffer solution) (20 mM HEPES, 2.5 mM probencide (165-15472, available from Wako Pure Chemical Industries, Ltd.), and 10×HBSS (14065-056, available from Gibco) diluted 10 times, pH 7.4)) containing a calcium-sensitive dye Fluo-4 AM at a final concentration of […] (F312, available from Dojindo Laboratories) and Pluronic F-127 at a final concentration of 0.0145% (P-2443, available from Sigma), followed by incubation at 37° C. for one hour, thereby loading Fluo-4 AM into the cells.
Subsequently, the cells were washed twice with an HBSS buffer solution, to which was subsequently added the same buffer solution. Twenty minutes thereafter, the plate was transferred into a fluorescence screening system (FLIPR TETRA, available from Molecular Devices, LLC) and measured for a Ca^2+-dependent fluorescence change in the cells.
First of all, a fluorescence baseline was measured, and thereafter, fluorescence measurement was performed for 2 minutes while adding a test substance, an excessive amount of 6-methyl-2-(phenylethynyl)pyridine (hereinafter referred to as “MPEP”) (final concentration: 10 μM), or the medium. Thereafter, fluorescence measurement was carried out for one minute while adding L-glutamic acid (final concentration: 10 μM).
While taking a fluorescence intensity caused by L-glutamic acid as 100% and a fluorescence intensity caused by L-glutamic acid in the presence of MPEP as 0%, respectively, function inhibitory activity against human mGluR5 was evaluated from the fluorescence intensity caused by L-glutamic acid in the presence of the test substance at each concentration, and an IC50 value was estimated according to a logistic equation (SAS System).

T1 sequence (P41594 21-1212): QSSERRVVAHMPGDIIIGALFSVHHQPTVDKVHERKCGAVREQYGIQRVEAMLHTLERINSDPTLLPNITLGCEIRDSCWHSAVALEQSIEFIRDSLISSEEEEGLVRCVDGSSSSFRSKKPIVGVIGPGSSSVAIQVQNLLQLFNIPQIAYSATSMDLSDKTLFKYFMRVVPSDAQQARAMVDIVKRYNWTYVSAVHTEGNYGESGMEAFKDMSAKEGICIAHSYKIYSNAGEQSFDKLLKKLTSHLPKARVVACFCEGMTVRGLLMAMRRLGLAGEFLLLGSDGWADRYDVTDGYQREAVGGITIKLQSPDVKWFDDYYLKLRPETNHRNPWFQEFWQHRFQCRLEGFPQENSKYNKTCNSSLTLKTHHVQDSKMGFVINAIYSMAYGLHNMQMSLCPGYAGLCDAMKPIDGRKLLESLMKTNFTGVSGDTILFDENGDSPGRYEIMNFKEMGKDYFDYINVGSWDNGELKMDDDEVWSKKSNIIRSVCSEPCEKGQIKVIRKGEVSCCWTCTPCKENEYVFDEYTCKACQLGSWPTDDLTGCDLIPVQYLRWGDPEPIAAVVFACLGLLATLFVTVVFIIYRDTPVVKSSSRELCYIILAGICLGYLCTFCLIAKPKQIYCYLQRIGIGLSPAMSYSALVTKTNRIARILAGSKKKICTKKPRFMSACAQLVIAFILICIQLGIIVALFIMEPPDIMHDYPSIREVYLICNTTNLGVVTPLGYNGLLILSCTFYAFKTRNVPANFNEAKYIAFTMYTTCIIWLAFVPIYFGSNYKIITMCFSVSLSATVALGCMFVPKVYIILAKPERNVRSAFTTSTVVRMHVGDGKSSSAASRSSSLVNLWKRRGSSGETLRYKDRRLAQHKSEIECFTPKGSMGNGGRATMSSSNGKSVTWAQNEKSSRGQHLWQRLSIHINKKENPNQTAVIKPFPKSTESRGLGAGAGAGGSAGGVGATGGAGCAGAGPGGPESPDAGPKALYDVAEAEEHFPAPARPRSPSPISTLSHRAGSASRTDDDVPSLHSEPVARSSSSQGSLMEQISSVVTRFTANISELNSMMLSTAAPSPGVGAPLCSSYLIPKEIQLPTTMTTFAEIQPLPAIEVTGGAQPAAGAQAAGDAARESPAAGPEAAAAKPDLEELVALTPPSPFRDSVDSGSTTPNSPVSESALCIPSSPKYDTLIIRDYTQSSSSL

Structure (SMILES) | IC50 [nM]
Cc1ccc(COc2cc(-c3cccnc3)c3c(n2)CCCC3)nc1 [Example 84, 2-[(5-Methylpyridin-2-yl)methoxy]-4-(pyridin-3-yl)-5,6,7,8-tetrahydroquinoline] | 112
Cc1ccnc(COc2cc(-c3cccnc3)c3c(n2)CCCC3)c1 [Example 85, 2-[(4-Methylpyridin-2-yl)methoxy]-4-(pyridin-3-yl)-5,6,7,8-tetrahydroquinoline] | 178
Fc1cccc(COc2cc(-c3cccnc3)c3c(n2)CCCC3)n1 [Example 86, 2-[(6-Fluoropyridin-2-yl)methoxy]-4-(pyridin-3-yl)-5,6,7,8-tetrahydroquinoline] | 15.1
COCc1cccc(COc2cc(-c3cccnc3)c3c(n2)CCCC3)n1 [Example 89, 2-{[6-(Methoxymethyl)pyridin-2-yl]methoxy}-4-(pyridin-3-yl)-5,6,7,8-tetrahydroquinoline] | 41.4
c1cncc(-c2cc(OCc3ncco3)nc3c2CCCC3)c1 [Example 91, 2-(1,3-Oxazol-2-ylmethoxy)-4-(pyridin-3-yl)-5,6,7,8-tetrahydroquinoline] | 16.9
Cc1coc(COc2cc(-c3cccnc3)c3c(n2)CCCC3)n1 [Example 92, 2-[(4-Methyl-1,3-oxazol-2-yl)methoxy]-4-(pyridin-3-yl)-5,6,7,8-tetrahydroquinoline] | 40.1
c1cncc(-c2cc(OCc3nccs3)nc3c2CCCC3)c1 [Example 94, 4-(Pyridin-3-yl)-2-(1,3-thiazol-2-ylmethoxy)-5,6,7,8-tetrahydroquinoline hydrochloride] | 75
Cc1csc(COc2cc(-c3cccnc3)c3c(n2)CCCC3)n1 [Example 95, 2-[(4-Methyl-1,3-thiazol-2-yl)methoxy]-4-(pyridin-3-yl)-5,6,7,8-tetrahydroquinoline] | 42
Cc1nc(COc2cc(-c3cccnc3)c3c(n2)CCCC3)cs1 [Example 96, 2-[(2-Methyl-1,3-thiazol-4-yl)methoxy]-4-(pyridin-3-yl)-5,6,7,8-tetrahydroquinoline] | 56.3
Fc1ccc(-c2cc(OCc3ccccn3)nc3c2CCCC3)cn1 [Example 101, 4-(6-Fluoropyridin-3-yl)-2-(pyridin-2-ylmethoxy)-5,6,7,8-tetrahydroquinoline dihydrochloride] | 23.4
COc1cncc(-c2cc(OCc3ccccn3)nc3c2CCCC3)c1 [Example 102, 4-(5-Methoxypyridin-3-yl)-2-(pyridin-2-ylmethoxy)-5,6,7,8-tetrahydroquinoline hydrochloride] | 51.2
N#Cc1ccc(-c2cc(OCc3ccccn3)nc3c2CCCC3)cn1 [Example 104, 5-[2-(Pyridin-2-ylmethoxy)-5,6,7,8-tetrahydroquinolin-4-yl]pyridine-2-carbonitrile hydrochloride] | 51.7
Fc1cncc(-c2cc(OCc3ccccn3)nc3c2CCCC3)c1 [Example 107, 4-(5-Fluoropyridin-3-yl)-2-(pyridin-2-ylmethoxy)-5,6,7,8-tetrahydroquinoline hydrochloride] | 81.2
N#Cc1cncc(-c2cc(OCc3ccccn3)nc3c2CCCC3)c1 [Example 113, 5-[2-(Pyridin-2-ylmethoxy)-5,6,7,8-tetrahydroquinolin-4-yl]pyridine-3-carbonitrile hydrochloride] | 68.8
CC(=O)c1cncc(-c2cc(OCc3ccccn3)nc3c2CCCC3)c1 [Example 115, 1-{5-[2-(Pyridin-2-ylmethoxy)-5,6,7,8-tetrahydroquinolin-4-yl]pyridin-3-yl}ethanone dihydrochloride] | 98.7
COC(=O)c1cncc(-c2cc(OCc3ccccn3)nc3c2CCCC3)c1 [Example 116, Methyl 5-[2-(pyridin-2-ylmethoxy)-5,6,7,8-tetrahydroquinolin-4-yl]pyridine-3-carboxylate] | 133
CN(C)C(=O)c1cncc(-c2cc(OCc3ccccn3)nc3c2CCCC3)c1 [Example 120, N,N-Dimethyl-5-[2-(pyridin-2-ylmethoxy)-5,6,7,8-tetrahydroquinolin-4-yl]pyridine-3-carboxamide hydrochloride] | 206
